Reference: PubChem BioAssay (NCI)
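Compound exposure: 48 hours, 5 concentrations, 96-well plates. TGI: total growth inhibition.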

Experiments:
Experiment in all cases: NCI-60 cell line screen, 48 h
[1] = tested on: 786-0 renal
[2] = tested on: A498 renal
[3] = tested on: A549 NSCLC
[4] = tested on: ACHN renal
[5] = tested on: BT-549 breast
[6] = tested on: CAKI-1 renal
[7] = tested on: CCRF-CEM leukemia
[8] = tested on: COLO 205 colon
[9] = tested on: DU-145 prostate
[10] = tested on: EKVX NSCLC
[11] = tested on: HCC-2998 colon
[12] = tested on: HCT-116 colon
[13] = tested on: HCT-15 colon
[14] = tested on: HOP-62 NSCLC
[15] = tested on: HOP-92 NSCLC
[16] = tested on: HS 578T breast
[17] = tested on: HT29 colon
[18] = tested on: IGROV1 ovarian
[19] = tested on: K-562 leukemia
[20] = tested on: KM12 colon
[21] = tested on: LOX IMVI melanoma
[22] = tested on: M14 melanoma
[23] = tested on: MALME-3M melanoma
[24] = tested on: MCF7 breast
[25] = tested on: MDA-MB-231 breast
[26] = tested on: MDA-MB-435
[27] = tested on: MDA-N
[28] = tested on: MOLT-4 leukemia
[29] = tested on: NCI-H226 lung
[30] = tested on: NCI-H23 lung
[31] = tested on: NCI-H460 lung
[32] = tested on: NCI-H522 lung
[33] = tested on: NCI/ADR-RES ovarian
[34] = tested on: OVCAR-3 ovarian
[35] = tested on: OVCAR-4 ovarian
[36] = tested on: OVCAR-5 ovarian
[37] = tested on: OVCAR-8 ovarian
[38] = tested on: PC-3 prostate
[39] = tested on: RPMI-8226 leukemia
[40] = tested on: RXF 393 renal
[41] = tested on: SF-268 CNS
[42] = tested on: SF-295 CNS
[43] = tested on: SF-539 CNS
[44] = tested on: SK-MEL-2 melanoma
[45] = tested on: SK-MEL-28 melanoma
[46] = tested on: SK-MEL-5 melanoma
[47] = tested on: SK-OV-3 ovarian
[48] = tested on: SN12C renal
[49] = tested on: SNB-19 CNS
[50] = tested on: SNB-75 CNS
[51] = tested on: SR leukemia
[52] = tested on: SW-620 colon
[53] = tested on: T-47D breast
[54] = tested on: TK-10 renal
[55] = tested on: U251 CNS
[56] = tested on: UACC-257 melanoma
[57] = tested on: UACC-62 melanoma
[58] = tested on: UO-31 renal
[59] = tested on: HL-60(TB) leukemia

Q: Which TGI [1] does the source give for `NC(Cc1ncccn1)C(=O)O` (centres undefined) here?
A: > 100 µM

Q: What about the TGI [2] of the same molecule?
A: > 100 µM

Q: What about the TGI [3] of the same molecule?
A: > 100 µM

Q: And the TGI [4]?
A: > 100 µM

Q: What about the TGI [5] of the same molecule?
A: > 100 µM

Q: What about the TGI [6] of the same molecule?
A: > 100 µM

Q: And the TGI [7]?
A: > 100 µM

Q: And the TGI [8]?
A: > 100 µM

Q: And the TGI [9]?
A: > 100 µM

Q: And the TGI [10]?
A: > 100 µM

Q: What about the TGI [11] of the same molecule?
A: > 100 µM

Q: What about the TGI [12] of the same molecule?
A: > 100 µM

Q: What about the TGI [13] of the same molecule?
A: > 100 µM

Q: What about the TGI [14] of the same molecule?
A: > 100 µM

Q: What about the TGI [15] of the same molecule?
A: > 100 µM

Q: And the TGI [16]?
A: > 100 µM

Q: What about the TGI [17] of the same molecule?
A: > 100 µM

Q: And the TGI [18]?
A: > 100 µM

Q: What about the TGI [19] of the same molecule?
A: > 100 µM

Q: What about the TGI [20] of the same molecule?
A: > 100 µM

Q: And the TGI [21]?
A: > 100 µM

Q: And the TGI [22]?
A: > 100 µM

Q: And the TGI [23]?
A: > 100 µM

Q: What about the TGI [24] of the same molecule?
A: > 100 µM

Q: And the TGI [25]?
A: > 100 µM

Q: And the TGI [26]?
A: > 100 µM

Q: And the TGI [27]?
A: > 100 µM

Q: And the TGI [28]?
A: > 100 µM

Q: And the TGI [29]?
A: > 100 µM

Q: What about the TGI [30] of the same molecule?
A: > 100 µM

Q: And the TGI [31]?
A: > 100 µM

Q: And the TGI [32]?
A: > 100 µM

Q: What about the TGI [33] of the same molecule?
A: > 100 µM

Q: What about the TGI [34] of the same molecule?
A: > 100 µM

Q: What about the TGI [35] of the same molecule?
A: > 100 µM

Q: And the TGI [36]?
A: > 100 µM

Q: And the TGI [37]?
A: > 100 µM

Q: What about the TGI [38] of the same molecule?
A: > 100 µM

Q: And the TGI [39]?
A: > 100 µM

Q: And the TGI [40]?
A: > 100 µM

Q: And the TGI [41]?
A: > 100 µM

Q: What about the TGI [42] of the same molecule?
A: > 100 µM

Q: And the TGI [43]?
A: > 100 µM

Q: What about the TGI [44] of the same molecule?
A: > 100 µM

Q: What about the TGI [45] of the same molecule?
A: > 100 µM

Q: And the TGI [46]?
A: > 100 µM

Q: What about the TGI [47] of the same molecule?
A: > 100 µM

Q: And the TGI [48]?
A: > 100 µM

Q: And the TGI [49]?
A: > 100 µM

Q: And the TGI [50]?
A: > 100 µM

Q: What about the TGI [51] of the same molecule?
A: > 100 µM

Q: And the TGI [52]?
A: > 100 µM

Q: What about the TGI [53] of the same molecule?
A: > 100 µM

Q: And the TGI [54]?
A: > 100 µM

Q: And the TGI [55]?
A: > 100 µM

Q: What about the TGI [56] of the same molecule?
A: > 100 µM

Q: And the TGI [57]?
A: > 100 µM

Q: And the TGI [58]?
A: > 100 µM

Q: With `Nc1ccc(-c2nc3ccccc3s2)cc1C#Cc1ccccc1` as the molecule, how does the TGI [1] read?
A: 32.3 µM

Q: What about the TGI [2] of the same molecule?
A: 42.5 µM

Q: And the TGI [3]?
A: 49 µM

Q: What about the TGI [4] of the same molecule?
A: 38.5 µM

Q: What about the TGI [5] of the same molecule?
A: 34.7 µM

Q: What about the TGI [6] of the same molecule?
A: 37.2 µM

Q: What about the TGI [7] of the same molecule?
A: 93.2 µM

Q: And the TGI [8]?
A: 31 µM

Q: And the TGI [9]?
A: 72.5 µM

Q: What about the TGI [10] of the same molecule?
A: 39.8 µM

Q: What about the TGI [12] of the same molecule?
A: 27.4 µM

Q: And the TGI [13]?
A: 38.2 µM

Q: What about the TGI [59] of the same molecule?
A: 62.1 µM

Q: What about the TGI [14] of the same molecule?
A: 28.2 µM

Q: What about the TGI [15] of the same molecule?
A: 52.8 µM

Q: And the TGI [16]?
A: 50.2 µM

Q: And the TGI [17]?
A: 35.4 µM

Q: What about the TGI [18] of the same molecule?
A: 28.4 µM

Q: And the TGI [19]?
A: 84.4 µM

Q: What about the TGI [20] of the same molecule?
A: 37.9 µM

Q: And the TGI [21]?
A: 36 µM

Q: What about the TGI [22] of the same molecule?
A: 30.6 µM

Q: What about the TGI [23] of the same molecule?
A: 28.5 µM

Q: What about the TGI [24] of the same molecule?
A: 19.2 µM

Q: What about the TGI [25] of the same molecule?
A: 47.8 µM

Q: And the TGI [26]?
A: 36 µM

Q: And the TGI [27]?
A: 35.8 µM

Q: What about the TGI [28] of the same molecule?
A: > 100 µM

Q: And the TGI [29]?
A: 49.2 µM

Q: And the TGI [30]?
A: 52.6 µM

Q: What about the TGI [31] of the same molecule?
A: 35.1 µM

Q: What about the TGI [32] of the same molecule?
A: 34.2 µM

Q: And the TGI [33]?
A: 48.6 µM

Q: And the TGI [34]?
A: 33.1 µM

Q: What about the TGI [35] of the same molecule?
A: 44 µM

Q: And the TGI [36]?
A: 54.5 µM

Q: And the TGI [37]?
A: 42.4 µM

Q: And the TGI [38]?
A: 45.4 µM

Q: What about the TGI [39] of the same molecule?
A: 47.2 µM

Q: What about the TGI [40] of the same molecule?
A: 34.6 µM

Q: And the TGI [41]?
A: 54.2 µM

Q: And the TGI [42]?
A: 47.1 µM

Q: And the TGI [43]?
A: 35.4 µM

Q: And the TGI [46]?
A: 31.1 µM

Q: What about the TGI [47] of the same molecule?
A: 60.7 µM

Q: And the TGI [48]?
A: 37.1 µM

Q: What about the TGI [49] of the same molecule?
A: 72.1 µM

Q: And the TGI [50]?
A: 59.7 µM

Q: And the TGI [51]?
A: > 100 µM

Q: And the TGI [52]?
A: 34.7 µM

Q: And the TGI [53]?
A: > 100 µM

Q: What about the TGI [54] of the same molecule?
A: 30.3 µM

Q: What about the TGI [55] of the same molecule?
A: 38.6 µM

Q: And the TGI [56]?
A: 31.3 µM

Q: And the TGI [57]?
A: 33.9 µM

Q: What about the TGI [58] of the same molecule?
A: 36.7 µM
